Assay results from patent publication US11168364B2, “Method and system for sequencing nucleic acids” (priority 2016, dated 2021).

Target: T1, Bsu DNA polymerase large fragment / primed template nucleic acid (Bacillus subtilis, UniProt O34996)
T1 construct: 350 U/ml Bsu DNA polymerase large fragment
T1 sequence (O34996 297-880 limits assumed): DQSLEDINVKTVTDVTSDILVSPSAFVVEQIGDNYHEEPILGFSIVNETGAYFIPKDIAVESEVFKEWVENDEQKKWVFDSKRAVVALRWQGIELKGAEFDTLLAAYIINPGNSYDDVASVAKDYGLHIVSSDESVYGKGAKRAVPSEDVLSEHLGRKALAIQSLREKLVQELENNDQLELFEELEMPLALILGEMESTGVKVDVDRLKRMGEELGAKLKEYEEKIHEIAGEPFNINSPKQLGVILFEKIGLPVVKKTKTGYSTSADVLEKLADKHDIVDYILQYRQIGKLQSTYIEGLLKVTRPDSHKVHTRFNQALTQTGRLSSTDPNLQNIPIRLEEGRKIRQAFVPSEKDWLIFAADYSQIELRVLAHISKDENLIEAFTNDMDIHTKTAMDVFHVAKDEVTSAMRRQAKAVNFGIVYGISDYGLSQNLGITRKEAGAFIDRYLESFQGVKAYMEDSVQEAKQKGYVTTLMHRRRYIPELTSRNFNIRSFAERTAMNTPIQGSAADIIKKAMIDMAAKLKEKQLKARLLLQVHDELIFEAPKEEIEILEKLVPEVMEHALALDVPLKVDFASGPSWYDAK
Assay: Biolayer interferometry of polymerase binding to immobilized primed template with cognate or non-cognate nucleotide, salt titration (Example 19)
Settings: for Ternary Complex Signal (Δλ, nm): dCTP (cognate); for Binary Complex Signal (Δλ, nm): dGTP (non-cognate)
Text: A FORTEBIO® (Menlo Park, Calif.) OCTET® instrument employing biolayer interferometry to measure binding reactions at the surface of a fiber optic tip was used in a multiwell plate format to investigate differential stability of binary and ternary complexes. Template strands biotinylated at their 5′-ends were used to immobilize the primed template nucleic acid onto fiber optic tips functionalized with streptavidin (SA) according to standard procedures. […] Tips were first equilibrated in a Tris-buffered solution containing 30 mM Tris-HCl (pH 8.0), and 0.1 mM EDTA before commencing the cycling protocol. Independent binding reactions for the two test nucleotides (i.e., cognate and non-cognate nucleotides) were carried out in the presence of concentrations of NaCl, KCl, or potassium glutamate that varied from 50 mM to 500 mM. […] In all instances, the reaction mixture used during the examination step contained Tris-HCl (pH 8.0), 0.01% Tween-20, 100 μg/ml BSA, 2 mM NiSO4, 350 U/ml Bsu DNA polymerase large fragment; and one of the nucleotides at a concentration of 100 μM (dCTP was used as a cognate nucleotide, and dGTP was used as a non-cognate nucleotide). Following each examination step, tips were exposed to a buffer containing 30 mM Tris-HCl (pH 8.0), 500 mM KCl, 2 mM EDTA and 0.05% Tween-20 for 20 seconds to strip enzyme complexes from the primed template nucleic acid. The stripping step was followed by a 15 second exposure to examination buffer without enzyme, dNTP or divalent cations to regenerate tips for the next cycle of examination. When using a single contacting step to effect binding of polymerase and nucleotide to the primed template nucleic acid, the binding step was 45 seconds long, with binding interactions being monitored continuously. This was accomplished by contacting the primed template nucleic acid with a single solution that included the polymerase and test nucleotide. Results from interferometry monitoring were analyzed to identify formation of ternary complexes (i.e., identifying cognate nucleotide) or binary complexes (i.e., identifying non-cognate nucleotide).

With N[C@@H](CCC(=O)[O-])C(=O)[O-].[K+].[K+] [Potassium Glutamate, potassium glutamate] the “Fold Enhancement (Ternary/Binary)” value (Potassium glutamate 50 mM) was 1.05, the “Ternary Complex Signal (Δλ, nm)” value (Potassium glutamate 50 mM) was 1.67 nm and the “Binary Complex Signal (Δλ, nm)” value (Potassium glutamate 50 mM) was 1.59 nm. For the same compound, the “Fold Enhancement (Ternary/Binary)” value (Potassium glutamate 75 mM) was 1.01, the “Ternary Complex Signal (Δλ, nm)” value (Potassium glutamate 75 mM) was 1.69 nm and the “Binary Complex Signal (Δλ, nm)” value (Potassium glutamate 75 mM) was 1.68 nm. For the same compound, the “Fold Enhancement (Ternary/Binary)” value (Potassium glutamate 100 mM) was 1.02, the “Ternary Complex Signal (Δλ, nm)” value (Potassium glutamate 100 mM) was 1.67 nm and the “Binary Complex Signal (Δλ, nm)” value (Potassium glutamate 100 mM) was 1.64 nm. For the same compound, the “Fold Enhancement (Ternary/Binary)” value (Potassium glutamate 125 mM) was 1.05, the “Ternary Complex Signal (Δλ, nm)” value (Potassium glutamate 125 mM) was 1.65 nm and the “Binary Complex Signal (Δλ, nm)” value (Potassium glutamate 125 mM) was 1.57 nm. For the same compound, the “Fold Enhancement (Ternary/Binary)” value (Potassium glutamate 150 mM) was 1.07, the “Ternary Complex Signal (Δλ, nm)” value (Potassium glutamate 150 mM) was 1.62 nm and the “Binary Complex Signal (Δλ, nm)” value (Potassium glutamate 150 mM) was 1.51 nm. The “Fold Enhancement (Ternary/Binary)” value (Potassium glutamate 175 mM) was 1.08, the “Ternary Complex Signal (Δλ, nm)” value (Potassium glutamate 175 mM) was 1.56 nm and the “Binary Complex Signal (Δλ, nm)” value (Potassium glutamate 175 mM) was 1.44 nm. For the same compound, the “Fold Enhancement (Ternary/Binary)” value (Potassium glutamate 200 mM) was 1.07, the “Ternary Complex Signal (Δλ, nm)” value (Potassium glutamate 200 mM) was 1.51 nm and the “Binary Complex Signal (Δλ, nm)” value (Potassium glutamate 200 mM) was 1.40 nm. For the same compound, the “Fold Enhancement (Ternary/Binary)” value (Potassium glutamate 225 mM) was 1.11, the “Ternary Complex Signal (Δλ, nm)” value (Potassium glutamate 225 mM) was 1.53 nm and the “Binary Complex Signal (Δλ, nm)” value (Potassium glutamate 225 mM) was 1.38 nm. The “Fold Enhancement (Ternary/Binary)” value (Potassium glutamate 250 mM) was 1.17, the “Ternary Complex Signal (Δλ, nm)” value (Potassium glutamate 250 mM) was 1.48 nm and the “Binary Complex Signal (Δλ, nm)” value (Potassium glutamate 250 mM) was 1.27 nm. The “Fold Enhancement (Ternary/Binary)” value (Potassium glutamate 275 mM) was 1.22, the “Ternary Complex Signal (Δλ, nm)” value (Potassium glutamate 275 mM) was 1.52 nm and the “Binary Complex Signal (Δλ, nm)” value (Potassium glutamate 275 mM) was 1.24 nm. For the same compound, the “Fold Enhancement (Ternary/Binary)” value (Potassium glutamate 300 mM) was 1.23, the “Ternary Complex Signal (Δλ, nm)” value (Potassium glutamate 300 mM) was 1.50 nm and the “Binary Complex Signal (Δλ, nm)” value (Potassium glutamate 300 mM) was 1.23 nm. For the same compound, the “Fold Enhancement (Ternary/Binary)” value (Potassium glutamate 325 mM) was 1.27, the “Ternary Complex Signal (Δλ, nm)” value (Potassium glutamate 325 mM) was 1.46 nm and the “Binary Complex Signal (Δλ, nm)” value (Potassium glutamate 325 mM) was 1.15 nm. The “Fold Enhancement (Ternary/Binary)” value (Potassium glutamate 350 mM) was 1.30, the “Ternary Complex Signal (Δλ, nm)” value (Potassium glutamate 350 mM) was 1.39 nm and the “Binary Complex Signal (Δλ, nm)” value (Potassium glutamate 350 mM) was 1.07 nm. The “Fold Enhancement (Ternary/Binary)” value (Potassium glutamate 375 mM) was 1.32, the “Ternary Complex Signal (Δλ, nm)” value (Potassium glutamate 375 mM) was 1.36 nm and the “Binary Complex Signal (Δλ, nm)” value (Potassium glutamate 375 mM) was 1.03 nm. For the same compound, the “Fold Enhancement (Ternary/Binary)” value (Potassium glutamate 400 mM) was 1.36, the “Ternary Complex Signal (Δλ, nm)” value (Potassium glutamate 400 mM) was 1.36 nm and the “Binary Complex Signal (Δλ, nm)” value (Potassium glutamate 400 mM) was 0.99 nm. For the same compound, the “Fold Enhancement (Ternary/Binary)” value (Potassium glutamate 425 mM) was 1.46, the “Ternary Complex Signal (Δλ, nm)” value (Potassium glutamate 425 mM) was 1.33 nm and the “Binary Complex Signal (Δλ, nm)” value (Potassium glutamate 425 mM) was 0.91 nm. The “Fold Enhancement (Ternary/Binary)” value (Potassium glutamate 450 mM) was 1.52, the “Ternary Complex Signal (Δλ, nm)” value (Potassium glutamate 450 mM) was 1.31 nm and the “Binary Complex Signal (Δλ, nm)” value (Potassium glutamate 450 mM) was 0.86 nm. For the same compound, the “Fold Enhancement (Ternary/Binary)” value (Potassium glutamate 475 mM) was 1.56, the “Ternary Complex Signal (Δλ, nm)” value (Potassium glutamate 475 mM) was 1.28 nm and the “Binary Complex Signal (Δλ, nm)” value (Potassium glutamate 475 mM) was 0.82 nm. The “Fold Enhancement (Ternary/Binary)” value (Potassium glutamate 500 mM) was 1.60, the “Ternary Complex Signal (Δλ, nm)” value (Potassium glutamate 500 mM) was 1.28 nm and the “Binary Complex Signal (Δλ, nm)” value (Potassium glutamate 500 mM) was 0.80 nm.
